According to publication PMC9768162, “Synthesis of macrocyclic nucleoside antibacterials and their interactions with MraY” (Nature Communications, 2022):
pIC50: −log10 of the molar value. ≈ marks a conversion by molar mass, not a printed value. Where two headings read alike, the source gives them in different places. Marks after values point to notes of the source that are not given here.

Legend:
S. aureus [1] = conditions: cited from earlier work
[2] = molecular target: T1, MraYSA (S. aureus MraY enzyme) (Staphylococcus aureus, UniProt Q2FZ93); parameters: His tag (inferred from His-Trap purification); made in house; host or cells: E. coli; method as in PMID 27622529; conditions: read-out: MraYSA inhibitory activity IC50; cited from earlier work
T1 sequence (Q2FZ93 1-321): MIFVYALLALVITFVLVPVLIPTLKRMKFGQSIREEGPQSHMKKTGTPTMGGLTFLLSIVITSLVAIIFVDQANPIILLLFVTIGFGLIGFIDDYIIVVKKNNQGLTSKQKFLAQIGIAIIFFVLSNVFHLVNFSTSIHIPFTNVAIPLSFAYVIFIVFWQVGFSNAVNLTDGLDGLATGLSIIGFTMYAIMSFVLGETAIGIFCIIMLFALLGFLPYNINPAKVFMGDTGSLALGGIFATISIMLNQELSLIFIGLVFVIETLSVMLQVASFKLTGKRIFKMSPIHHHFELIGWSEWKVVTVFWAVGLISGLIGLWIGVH

MraY (E. coli) = tested on: MraY (E. coli); parameters: method as in PMID 24014169; conditions: cited from earlier work
E. faecium [3] = tested on: E. faecium; parameters: method as in PMID 24014169; conditions: cited from earlier work
K. pneumoniae [4] = tested on: K. pneumoniae; parameters: method as in PMID 24014169; conditions: K. pneumoniae ATCC 13883; cited from earlier work
A. baumannii [5] = tested on: A. baumannii; parameters: method as in PMID 24014169; conditions: A. baumannii ATCC 19606; cited from earlier work
P. aeruginosa [6] = tested on: P. aeruginosa; parameters: method as in PMID 24014169; conditions: P. aeruginosa ATCC 15692 (footnote e); cited from earlier work
E. cloacae [7] = tested on: E. cloacae; parameters: method as in PMID 24014169; conditions: E. cloacae ATCC 13047; cited from earlier work
E. faecalis [8] = tested on: E. faecalis; parameters: method as in PMID 24014169; conditions: E. faecalis ATCC 29212; cited from earlier work
Gram-positive bacteria = tested on: Gram-positive bacteria; parameters: method as in PMID 24014169; conditions: range over strains; cited from earlier work
E. faecium [9] = experiment: Antibacterial activity, MIC by microdilution broth method (CLSI); assay type: cell-based, Enterococcus faecium; conditions: for MIC: Enterococcus faecium, read-out: MIC
S. aureus [10] = experiment: as above; assay type: cell-based, Staphylococcus aureus; conditions: Staphylococcus aureus
K. pneumoniae [11] = experiment: as above; assay type: cell-based; conditions: Klebsiella pneumoniae, ATCC13883; K. pneumoniae ATCC 13883; CA-MHB, 37 °C, 20 h
A. baumannii [12] = experiment: as above; assay type: cell-based; conditions: Acinetobacter baumannii, ATCC19606; A. baumannii ATCC 19606; CA-MHB, 37 °C, 20 h
P. aeruginosa [13] = experiment: as above; assay type: cell-based; conditions: Pseudomonas aeruginosa, ATCC27853; P. aeruginosa ATCC 27853; CA-MHB, 37 °C, 20 h
E. cloacae [14] = experiment: as above; assay type: cell-based; conditions: Enterobacter cloacae, ATCC13047; E. cloacae ATCC 13047; CA-MHB, 37 °C, 20 h
M. tuberculosis = experiment: MIC in 7H9 liquid medium, 2 weeks; assay type: cell-based; conditions: Mycobacterium tuberculosis, 336 h, M. tuberculosis H37Rv, 37 °C, minimum concentration inhibiting at least 50% of growth
M. avium = experiment: MIC in 7H9 liquid medium, 2 weeks; assay type: cell-based; conditions: Mycobacterium avium, ATCC25291, 336 h, M. avium ATCC 25291, 37 °C, minimum concentration inhibiting at least 50% of growth
E. faecalis [15] = experiment: Antibacterial activity, MIC by microdilution broth method (CLSI); assay type: cell-based; conditions: for MIC: Enterococcus faecalis
[16] = tested on: vancomycin-resistant Enterococci (VRE), clinically isolated E. faecium and E. faecalis; assay type: cell-based; conditions: VRE E. faecium ATCC 51559, 51858, E. faecalis 51299 and clinically isolated E. faecium and E. faecalis
E. coli = experiment: Antibacterial activity, MIC by microdilution broth method (CLSI); conditions: E. coli ATCC 25922; CA-MHB, 37 °C, 20 h
[17] = molecular target: T1, MraYSA (S. aureus MraY enzyme); experiment: Fluorescence-based MraY inhibitory assay (dansylated Park's nucleotide); conditions: for MraYSA activity, source data of Fig. 7b, average: average of n=1-3

## CCCCCCCCCCCCCCCCC[C@H]1CN(C)[C@@H]([C@H](O[C@@H]2O[C@H](CN)[C@@H](O)[C@H]2O)[C@H]2O[C@@H](n3ccc(=O)[nH]c3=O)[C@H](O)[C@@H]2O)C(=O)N(C)[C@@H]1C(=O)O [Carbacaprazamycin]
S. aureus [1]; S. aureus ATCC 29213
  MIC: 8 µg/mL (≈ 10 µM)
[2]
  pIC50: 8.42

## CCCC(C)CC(C)CC(C)CC(C)/C=C(C)/C=C/C(O)C(C)C(=O)OC1C(O)CN2CC1NC[C@H]1O[C@@H](O[C@H]([C@H]3O[C@@H](n4ccc(=O)[nH]c4=O)[C@H](O)[C@@H]3OS(=O)(=O)O)[C@H]2C(=O)O)[C@H](O)[C@@H]1O (some centres unmarked) [Sphaerimicin A]
MraY (E. coli)
  pIC50: 7.86
  IC50 for MraY: 0.0135 µg/mL
E. faecium [3]; (footnote c)
  MIC: 2^c μg/mL
E. faecium [3]; E. faecium ATCC 19434
  MIC: 2 µg/mL (≈ 2.05 µM)
S. aureus [1]; S. aureus ATCC 6538P
  MIC: 4^d μg/mL
S. aureus [1]; S. aureus ATCC 6538P, listed as sphaerimicin A
  MIC: 4 µg/mL (≈ 4.1 µM)
K. pneumoniae [4]
  MIC: >128 µg/mL
A. baumannii [5]
  MIC: >128 µg/mL
P. aeruginosa [6]
  MIC: >128^e μg/mL
E. cloacae [7]
  MIC: >128 µg/mL
E. faecalis [8]
  MIC: 2 µg/mL (≈ 2.05 µM)
Gram-positive bacteria
  MIC against Gram-positive bacteria: 1 to 16 µg/mL

## CCCCCCCCCCCCCCCC(=O)O[C@@H]1C[C@@H]2CN(C1)[C@H](C(=O)O)[C@@H]([C@H]1O[C@@H](n3ccc(=O)[nH]c3=O)[C@H](O)[C@@H]1O)O[C@@H]1O[C@H](CN2)[C@@H](O)[C@H]1O [SPM-3]
E. faecium [9]; ATCC35667, 20 h, E. faecium ATCC 35667, CA-MHB, 37 °C, 20 h
  MIC: 2 µg/mL (≈ 2.6 µM)
E. faecium [9]; ATCC 51559 / VRE, E. faecium (VRE) ATCC 51559
  MIC: 2 µg/mL (≈ 2.6 µM)
E. faecium [9]; ATCC 51858 / VRE, E. faecium (VRE) ATCC 51858
  MIC: 8 µg/mL (≈ 10.4 µM)
E. faecium [9]; clinically isolated E. faecium strain 1
  MIC: 2 µg/mL (≈ 2.6 µM)
E. faecium [9]; clinically isolated E. faecium strain 2
  MIC: 2 µg/mL (≈ 2.6 µM)
E. faecium [9]; clinically isolated E. faecium strain 3
  MIC: 4 µg/mL (≈ 5.2 µM)
E. faecium [9]; clinically isolated E. faecium strain 4
  MIC: 1 µg/mL (≈ 1.3 µM)
E. faecium [9]; clinically isolated E. faecium strain 5
  MIC: 2 µg/mL (≈ 2.6 µM)
E. faecium [9]; clinically isolated E. faecium strain 7
  MIC: 2 µg/mL (≈ 2.6 µM)
E. faecium [9]; clinically isolated E. faecium strain 8
  MIC: 2 µg/mL (≈ 2.6 µM)
E. faecium [9]; clinically isolated E. faecium strain 9
  MIC: 1 µg/mL (≈ 1.3 µM)
E. faecium [9]; clinically isolated E. faecium strain 10
  MIC: 1 µg/mL (≈ 1.3 µM)
E. faecium [9]; clinically isolated E. faecium strain 11
  MIC: 4 µg/mL (≈ 5.2 µM)
E. faecium [9]; clinically isolated E. faecium strain 13
  MIC: 1 µg/mL (≈ 1.3 µM)
E. faecium [9]; clinically isolated E. faecium strain 14
  MIC: 0.5 µg/mL (≈ 0.65 µM)
E. faecium [9]; clinically isolated E. faecium strain 15
  MIC: 2 µg/mL (≈ 2.6 µM)
E. faecium [9]; clinically isolated E. faecium (14 strains)
  MIC (range over strains): 0.5 to 4 µg/mL
S. aureus [10]; ATCC29213, 20 h, S. aureus ATCC 29213, CA-MHB, 37 °C, 20 h
  MIC: 8 µg/mL (≈ 10.4 µM)
S. aureus [10]; MRSA, 20 h, S. aureus (MRSA) JE2, CA-MHB, 37 °C, performed once
  MIC: 8 µg/mL (≈ 10.4 µM)
S. aureus [10]; MRSA, clinically isolated MRSA #1958
  MIC: 16 µg/mL (≈ 20.8 µM)
S. aureus [10]; MRSA, clinically isolated MRSA #2071
  MIC: 16 µg/mL (≈ 20.8 µM)
S. aureus [10]; MRSA, clinically isolated MRSA #2110
  MIC: > 64 µg/mL
S. aureus [10]; MRSA, clinically isolated MRSA #2310
  MIC: 32 µg/mL (≈ 41.6 µM)
S. aureus [10]; MRSA, clinically isolated MRSA #2334
  MIC: > 64 µg/mL
S. aureus [10]; MRSA, clinically isolated MRSA #2931
  MIC: 4 µg/mL (≈ 5.2 µM)
S. aureus [10]; MRSA, clinically isolated MRSA #2932
  MIC: 32 µg/mL (≈ 41.6 µM)
S. aureus [10]; MRSA, clinically isolated MRSA #2933
  MIC: 8 µg/mL (≈ 10.4 µM)
S. aureus [10]; MRSA, clinically isolated MRSA #2934
  MIC: 8 µg/mL (≈ 10.4 µM)
S. aureus [10]; MRSA, clinically isolated MRSA #2935
  MIC: 32 µg/mL (≈ 41.6 µM)
K. pneumoniae [11]
  MIC: > 64 µg/mL
A. baumannii [12]
  MIC: > 64 µg/mL
P. aeruginosa [13]
  MIC: > 64 µg/mL
E. cloacae [14]
  MIC: > 64 µg/mL
M. tuberculosis
  MIC: 16 µg/mL (≈ 20.8 µM)
M. avium
  MIC: 4 µg/mL (≈ 5.2 µM)
E. faecalis [15]; ATCC 51299 / VRE, E. faecalis (VRE) ATCC 51299
  MIC: 1 µg/mL (≈ 1.3 µM)
E. faecalis [15]; clinically isolated E. faecalis strain 21
  MIC: 0.5 µg/mL (≈ 0.65 µM)
E. faecalis [15]; clinically isolated E. faecalis strain 22
  MIC: 0.5 µg/mL (≈ 0.65 µM)
E. faecalis [15]; clinically isolated E. faecalis strain 23
  MIC: 1 µg/mL (≈ 1.3 µM)
E. faecalis [15]; clinically isolated E. faecalis strain 24
  MIC: 1 µg/mL (≈ 1.3 µM)
E. faecalis [15]; clinically isolated E. faecalis strain 25
  MIC: 0.5 µg/mL (≈ 0.65 µM)
E. faecalis [15]; clinically isolated E. faecalis strain 26
  MIC: 0.5 µg/mL (≈ 0.65 µM)
E. faecalis [15]; clinically isolated E. faecalis strain 27
  MIC: 0.5 µg/mL (≈ 0.65 µM)
E. faecalis [15]; clinically isolated E. faecalis strain 28
  MIC: 1 µg/mL (≈ 1.3 µM)
E. faecalis [15]; clinically isolated E. faecalis strain 29
  MIC: 1 µg/mL (≈ 1.3 µM)
E. faecalis [15]; clinically isolated E. faecalis strain 30
  MIC: 0.5 µg/mL (≈ 0.65 µM)
E. faecalis [15]; clinically isolated E. faecalis strain 31
  MIC: 1 µg/mL (≈ 1.3 µM)
E. faecalis [15]; clinically isolated E. faecalis strain 32
  MIC: 1 µg/mL (≈ 1.3 µM)
E. faecalis [15]; clinically isolated E. faecalis strain 33
  MIC: 1 µg/mL (≈ 1.3 µM)
E. faecalis [15]; clinically isolated E. faecalis strain 34
  MIC: 0.5 µg/mL (≈ 0.65 µM)
E. faecalis [15]; clinically isolated E. faecalis strain 35
  MIC: 1 µg/mL (≈ 1.3 µM)
E. faecalis [15]; clinically isolated E. faecalis (15 strains)
  MIC (range over strains): 0.5 to 1 µg/mL
[16]
  MIC (range over strains): 0.5 to 8 µg/mL
E. coli
  MIC: >64 µg/mL
[17]
  pIC50: 7.39
[17]; compound 0.0001 µM
  MraYSA activity, source data of Fig. 7b, average: 97.0831
[17]; compound 0.001 µM
  MraYSA activity, source data of Fig. 7b, average: 91.2486
[17]; compound 0.01 µM
  MraYSA activity, source data of Fig. 7b, average: 63.9982
[17]; compound 0.1 µM
  MraYSA activity, source data of Fig. 7b, average: 42.189
[17]; compound 1 µM
  MraYSA activity, source data of Fig. 7b, average: 10.7538
[17]; compound 10 µM
  MraYSA activity, source data of Fig. 7b, average: 6.7446
[17]; compound 100 µM
  MraYSA activity, source data of Fig. 7b, average: 3.028
[17]; ratio of IC50 values, SPM-3 vs SPM-1
  fold weaker compared to SPM-1 (MraYSA IC50): 4.5 fold
